Test results: PubChem BioAssay AID248 (DTP/NCI, 2004)
Inconclusive results and toxic doses are left out. Rule as the data show it: active = T/C of 150% or more; inactive = T/C below 125%.

Tested on: L1210 leukemia ip in BDF1 mice, survival T/C
Experiment: NCI In Vivo Anticancer Drug Screen. Data for tumor model L1210 Leukemia (intraperitoneal) in B6D2F1 (BDF1) mice
Conditions: endpoint: mean survival time, higher = longer survival
Procedure, shortened: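 Each compound was tested against a transplantable tumor grown in mice. The endpoint was survival, with treated animals benchmarked against vehicle controls as a simple ratio.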

[1] = dose: 100.0 mg/kg/injection, schedule: Q04DX003 (ip), vehicle: Klucel (hydroxypropylcellulose) (HPC)
[2] = dose: 400.0 mg/kg/injection, schedule: Q04DX003 (ip), vehicle: Klucel (hydroxypropylcellulose) (HPC)
[3] = dose: 100.0 mg/kg/injection, schedule: Q01DX009 (ip), vehicle: Klucel (hydroxypropylcellulose) (HPC)
[4] = dose: 200.0 mg/kg/injection, schedule: Q01DX009 (ip), vehicle: Klucel (hydroxypropylcellulose) (HPC)
[5] = dose: 200.0 mg/kg/injection, schedule: Q04DX003 (ip), vehicle: Klucel (hydroxypropylcellulose) (HPC)
[6] = dose: 100.0 mg/kg/injection, schedule: Q01DX001 (ip), vehicle: saline
[7] = dose: 200.0 mg/kg/injection, schedule: Q01DX001 (ip), vehicle: saline
[8] = dose: 400.0 mg/kg/injection, schedule: Q01DX001 (ip), vehicle: saline
[9] = dose: 100.0 mg/kg/injection, schedule: Q01DX001 (ip), vehicle: carboxymethylcellulose (CMC)
[10] = dose: 200.0 mg/kg/injection, schedule: Q01DX001 (ip), vehicle: carboxymethylcellulose (CMC)
[11] = dose: 400.0 mg/kg/injection, schedule: Q01DX001 (ip), vehicle: carboxymethylcellulose (CMC)
[12] = dose: 400.0 mg/kg/injection, schedule: Q01DX009 (ip), vehicle: Klucel (hydroxypropylcellulose) (HPC)
[13] = dose: 100.0 mg/kg/injection, schedule: Q01DX001 (ip), vehicle: saline with Tween-80
[14] = dose: 100.0 mg/kg/injection, schedule: Q04DX003 (ip), vehicle: saline with Tween-80

Measured: T/C

O=C(CNC(=O)C(CSCc1ccccc1)NC(=O)OCc1ccccc1)OCc1ccccc1 (configuration not stated)
inactive: dose: 25.0 mg/kg/injection, schedule: Q01DX009 (ip), vehicle: gum acacia 92 % of control | dose: 50.0 mg/kg/injection, schedule: Q01DX009 (ip), vehicle: gum acacia 87 % of control | dose: 100.0 mg/kg/injection, schedule: Q01DX009 (ip), vehicle: gum acacia 94 % of control | [1] 89 % of control | [2] 99 % of control

Cc1cc([N+](=O)[O-])ccc1NS(=O)(=O)c1ccccc1
inactive: dose: 50.0 mg/kg/injection, schedule: Q01DX009 (ip), vehicle: Klucel (hydroxypropylcellulose) (HPC) 92 % of control | [3] 95 % of control | [1] 102 % of control | [4] 95 % of control | [5] 97 % of control

NCCCCC(=O)NC(CCCCNC(=O)OCc1ccccc1)C(=O)NCCCCC(=O)NC(CCCCNC(=O)OCc1ccccc1)C(=O)NCCCCC(=O)NC(CCCCNC(=O)OCc1ccccc1)C(=O)NCCCCC(=O)NC(CCCCNC(=O)OCc1ccccc1)C(=O)NCCCCC(=O)NC(CCCCNC(=O)OCc1ccccc1)C(=O)NCCCCC(=O)NC(CCCCNC(=O)OCc1ccccc1)C(=O)NCCCCC(=O)NC(CCCCNC(=O)OCc1ccccc1)C(=O)O (configuration not stated)
inactive: [6] 92 % of control | [7] 90 % of control | [8] 95 % of control

Cc1c(CCNC=O)cc(C)c2c3c(oc12)CCCC3
inactive: dose: 50.0 mg/kg/injection, schedule: Q01DX001 (ip), vehicle: saline 101 % of control | [6] 104 % of control | [7] 104 % of control

Oc1cc2c3c(c1)-c1c(ccc(O)c1O)CC3NCC2 (configuration not stated)
inactive: dose: 6.25 mg/kg/injection, schedule: Q04DX003 (ip), vehicle: DMSO 100 % of control | dose: 12.5 mg/kg/injection, schedule: Q04DX003 (ip), vehicle: DMSO 100 % of control | dose: 25.0 mg/kg/injection, schedule: Q04DX003 (ip), vehicle: DMSO 93 % of control | dose: 50.0 mg/kg/injection, schedule: Q04DX003 (ip), vehicle: DMSO 88 % of control

Cn1c2c(c(=O)n(C)c1=O)C(=Nc1ccccc1)C(=O)N2
inactive: [6] 101 % of control | [7] 104 % of control | [8] 96 % of control

Cc1ccc2cc(-c3ccc(C4CCCCC4)cc3)c(N=O)n2c1
inactive: dose: 50.0 mg/kg/injection, schedule: Q01DX001 (ip), vehicle: carboxymethylcellulose (CMC) 93 % of control | [9] 96 % of control | [10] 90 % of control | [11] 90 % of control

CC(=O)OCCN1CC1
inactive: dose: 3.12 mg/kg/injection, schedule: Q01DX009 (ip), vehicle: saline 116 % of control | dose: 6.25 mg/kg/injection, schedule: Q01DX009 (ip), vehicle: saline 122 % of control | dose: 12.5 mg/kg/injection, schedule: Q01DX009 (ip), vehicle: saline 118 % of control

CCC(=C\c1sc2ccc3ccccc3c2[n+]1CC)/C=C1/Sc2ccc3ccccc3c2N1CC
inactive: dose: 2.0 mg/kg/injection, schedule: Q01DX001 (ip), vehicle: other 117 % of control | dose: 4.0 mg/kg/injection, schedule: Q01DX001 (ip), vehicle: other 95 % of control | dose: 8.0 mg/kg/injection, schedule: Q01DX001 (ip), vehicle: other 88 % of control

CCC1(CCCCCl)OCCO1
inactive: [3] 103 % of control | [4] 97 % of control | [12] 103 % of control

CCOC(=O)C1=C(C)NC(C)=C(C(=O)OCC)C1C
inactive: [9] 111 % of control | [10] 116 % of control | [11] 106 % of control

Cc1nc2ccc(NC(=O)c3ccccc3)cc2o1
inactive: [1] 105 % of control | [5] 105 % of control | [2] 100 % of control

NC(=O)Nc1cccc2ccccc12
inactive: [3] 97 % of control | [1] 92 % of control | [4] 97 % of control | [5] 94 % of control | [12] 103 % of control | [2] 100 % of control

CCOC(=O)CN1N=C([P+](c2ccccc2)(c2ccccc2)c2ccccc2)CC1(c1ccccc1)c1ccccc1
inactive: dose: 10.0 mg/kg/injection, schedule: Q01DX001 (ip), vehicle: saline 95 % of control | dose: 20.0 mg/kg/injection, schedule: Q01DX001 (ip), vehicle: saline 96 % of control | dose: 40.0 mg/kg/injection, schedule: Q01DX001 (ip), vehicle: saline 86 % of control

O=C(O)c1cccc2c1C(=O)c1cc(Cl)ccc1-2
inactive: dose: 75.0 mg/kg/injection, schedule: Q01DX001 (ip), vehicle: carboxymethylcellulose (CMC) 96 % of control | dose: 150.0 mg/kg/injection, schedule: Q01DX001 (ip), vehicle: carboxymethylcellulose (CMC) 102 % of control

ClCc1c2ccccc2cc2ccccc12
inactive: dose: 6.25 mg/kg/injection, schedule: Q04DX002 (ip), vehicle: saline with Tween-80 101 % of control | dose: 12.5 mg/kg/injection, schedule: Q04DX002 (ip), vehicle: saline with Tween-80 101 % of control

Cn1cnc(N)c1C(N)=S
inactive: dose: 100.0 mg/kg/injection, schedule: Q04DX003 (ip), vehicle: saline 100 % of control | [4] 98 % of control | dose: 200.0 mg/kg/injection, schedule: Q04DX003 (ip), vehicle: saline 92 % of control | [12] 92 % of control | dose: 400.0 mg/kg/injection, schedule: Q04DX003 (ip), vehicle: saline 104 % of control

CCS(=O)(=O)C(CCC(C)C)CCC(C)C
inactive: [9] 102 % of control | [10] 109 % of control | [11] 104 % of control

CC12CCC(=O)C=C1CCC1C2CCC2(C)C1CCC2[N+](C)(C)C (configuration not stated)
inactive: dose: 75.0 mg/kg/injection, schedule: Q01DX001 (ip), vehicle: other 108 % of control

CSCC1OC(n2cnc3c(N)nc(Cl)nc32)C(O)C1O (configuration not stated)
inactive: dose: 3.12 mg/kg/injection, schedule: Q01DX009 (ip), vehicle: saline with Tween-80 97 % of control | dose: 6.25 mg/kg/injection, schedule: Q01DX009 (ip), vehicle: saline with Tween-80 102 % of control | dose: 12.5 mg/kg/injection, schedule: Q01DX009 (ip), vehicle: saline with Tween-80 107 % of control | dose: 25.0 mg/kg/injection, schedule: Q01DX009 (ip), vehicle: saline with Tween-80 91 % of control | dose: 25.0 mg/kg/injection, schedule: Q04DX003 (ip), vehicle: saline with Tween-80 97 % of control | dose: 50.0 mg/kg/injection, schedule: Q04DX003 (ip), vehicle: saline with Tween-80 101 % of control | [13] 95 % of control | [14] 108 % of control

Cc1csc[n+]1CCS(=O)(=O)[O-]
inactive: [6] 95 % of control | [7] 97 % of control | [8] 97 % of control

CON1C(=O)C2(CCCCC2)C2=NOC3C(Br)CCCC231 (configuration not stated)
inactive: [13] 92 % of control | [14] 106 % of control | dose: 200.0 mg/kg/injection, schedule: Q01DX001 (ip), vehicle: saline with Tween-80 95 % of control | dose: 200.0 mg/kg/injection, schedule: Q04DX003 (ip), vehicle: saline with Tween-80 97 % of control | dose: 400.0 mg/kg/injection, schedule: Q01DX001 (ip), vehicle: saline with Tween-80 95 % of control | dose: 400.0 mg/kg/injection, schedule: Q04DX003 (ip), vehicle: saline with Tween-80 95 % of control

Cn1c(C(O)(Cc2ccccn2)Cc2ccccn2)cc2ccccc21
inactive: dose: 100.0 mg/kg/injection, schedule: Q04DX002 (ip), vehicle: saline with Tween-80 90 % of control | dose: 200.0 mg/kg/injection, schedule: Q04DX002 (ip), vehicle: saline with Tween-80 90 % of control | dose: 400.0 mg/kg/injection, schedule: Q04DX002 (ip), vehicle: saline with Tween-80 97 % of control

Nc1c(Cl)c(Cl)c2c(c1Cl)/C(=N/O)c1cc(Cl)ccc1-2
inactive: [9] 95 % of control | [10] 95 % of control | [11] 103 % of control
